# Experimental data reported in patent US20110263580A1, “METHOD FOR TREATING ALZHEIMER'S DISEASE AND RELATED CONDITIONS” (priority 2008, published 2011).
# Where two headings read alike, the source gives them in different places.
# What was measured:
# Aβ [1] = experiment: CSF levels of Aβ post-dose in rhesus monkey; format: in vivo
# [2] = rhesus monkey, in vivo; for Tolerated: po
# Method: Compound IA (synthesis example 2 herein) was administered orally to groups of rhesus monkeys by continuous and intermittent regimens over periods of days or weeks. Physical signs were recorded and the absence of loose stool, and other overt physical signs, was taken as tolerance.
# [3] = mouse, in vivo, po
# Method: Compound IIIA (prepared as described in Sparey et al, Bioorg. Med. Chem. Lett. (2005) 15, 4212-4216) was administered orally to groups of mice (n=10) via gavage in 0.5% methylcellulose by a variety of continuous and intermittent regimens over periods of several weeks, and body weights recorded twice-weekly as a measure of tolerance or otherwise of the drug treatment. Less than 20% loss of body weight after 21 days, with no other overt symptoms, was taken as tolerance, and the results are summarised in the following table: […]
# [4] = Plasma levels of the drug after a single dose in mice; format: in vivo; details: single dose of 300 mg/Kg
# Method: (§1) Compound IIIA (prepared as described in Sparey et al, Bioorg. Med. Chem. Lett. (2005) 15, 4212-4216) was administered orally to groups of mice (n=10) via gavage in 0.5% methylcellulose by a variety of continuous and intermittent regimens over periods of several weeks, and body weights recorded twice-weekly as a measure of tolerance or otherwise of the drug treatment. Less than 20% loss of body weight after 21 days, with no other overt symptoms, was taken as tolerance, and the results are summarised in the following table:
# (§2) Plasma levels of Aβ were monitored 4 hours, 1 day, 3 days, 4 days and 7 days after a single dose of 300 mg/Kg, and found to be (respectively), 0%, 0%, 0%, 67% and 85% of the baseline (control) level, indicating prolonged therapeutic efficacy from the single dose. Plasma levels of the drug had declined to zero within 4 days of the single dose.
# Aβ [5] = experiment: Plasma levels of Aβ after a single dose in mice; format: in vivo; details: single dose of 300 mg/Kg
# Method: as §1, §2
# Aβ42 = experiment: CSF Aβ42 in rhesus monkeys, once-weekly dosing; format: in vivo; details: oral, once-weekly 30 mpk, over a 3 week period, relative to vehicle-treated controls
# Method: (§3) Compound VIB (Example 23 herein) was administered orally to rhesus monkeys once-weekly at a dose of 30 mpk and levels of Aβ40 and Aβ42 in the cerebrospinal fluid (CSF) were monitored.
# Aβ40 = experiment: CSF Aβ40 in rhesus monkeys, once-weekly dosing; format: in vivo; details: oral, once-weekly 30 mpk, over a 3 week period, relative to vehicle-treated controls
# Method: as §3
# [6] = Side effects in rhesus monkeys, once-weekly dosing; format: in vivo; details: oral, once-weekly 30 mpk
# Method: as §3
structure (smiles),measurement,setting,value
"O=S(=O)(N[C@H]1C[C@@](c2cc(F)ccc2F)(S(=O)(=O)c2ccc(Cl)cc2)C1)C(F)(F)F [Compound IA, N-[cis-3-[(4-chlorophenyl)sulfonyl]-3-(2,5-difluorophenyl)cyclobutyl]-1,1,1-trifluoromethanesulfonamide]",Effect on CSF levels of Aβ,Aβ [1]; doses below 10 mg/Kg,do not effect Aβ levels appreciably
same,Effect on CSF levels of Aβ,Aβ [1]; weekly doses,lower CSF Aβ significantly
same,Tolerance,[2],tolerated
same,Tolerated,[2]; 3 mg/kg,No
same,Tolerated,[2]; 50 mg/kg,Yes
same,Tolerated,[2]; 200 mg/kg,Yes
O=S1(=O)NC2(CN1CC(F)(F)F)C1CCC2Cc2cc(C=CCN3CCC(C(F)(F)F)CC3)ccc2C1 (stereo not shown) [Compound IIIA],Tolerated,[3]; 50 mg/kg,Yes
same,Tolerated,[3]; 150 mg/kg,No
same,Tolerated,[3]; 300 mg/kg,Yes
same,Time until plasma levels of the drug had declined to zero,[4],≤ 4 days
same,"Plasma levels of Aβ, % of the baseline (control) level",Aβ [5]; 4 hours after dose,0%
same,"Plasma levels of Aβ, % of the baseline (control) level",Aβ [5]; 1 day after dose,0%
same,"Plasma levels of Aβ, % of the baseline (control) level",Aβ [5]; 3 days after dose,0%
same,"Plasma levels of Aβ, % of the baseline (control) level",Aβ [5]; 4 days after dose,67%
same,"Plasma levels of Aβ, % of the baseline (control) level",Aβ [5]; 7 days after dose,85%
"O=S(=O)(N[C@H]1CC[C@@](c2cc(F)ccc2C(F)(F)F)(S(=O)(=O)c2ccc(C(F)(F)F)cc2)CC1)C(F)(F)F [Compound VIB, 1,1,1-trifluoro-N-(4-[5-fluoro-2-(trifluoromethyl)phenyl]-4-{[4-(trifluoromethyl)phenyl]sulfonyl}cyclohexyl)methanesulfonamide]",Average reduction in CSF Aβ42 levels,Aβ42,approximately 40%
same,Average reduction in CSF Aβ40 levels,Aβ40,approximately 40%
same,GI toxicity,[6]; 3 week period,no evidence of GI toxicity
same,Other side-effects (study terminated after 3 weeks),[6]; unconnected with Notch signalling,respiratory side-effects
